Measured values as given in ChEMBL document CHEMBL1681705, “Optimisation of ITK inhibitors through successive iterative design cycles” (Bioorg Med Chem Lett, 2011).

What was measured:
[1] = target: T1, Tyrosine-protein kinase ITK/TSK (Homo sapiens, UniProt Q08881); test: Inhibition of recombinant GST-tagged full-length ITK expressed in baculovirus expression system after 30 mins by scintillation proximity assay
T1 sequence (Q08881 whole entry): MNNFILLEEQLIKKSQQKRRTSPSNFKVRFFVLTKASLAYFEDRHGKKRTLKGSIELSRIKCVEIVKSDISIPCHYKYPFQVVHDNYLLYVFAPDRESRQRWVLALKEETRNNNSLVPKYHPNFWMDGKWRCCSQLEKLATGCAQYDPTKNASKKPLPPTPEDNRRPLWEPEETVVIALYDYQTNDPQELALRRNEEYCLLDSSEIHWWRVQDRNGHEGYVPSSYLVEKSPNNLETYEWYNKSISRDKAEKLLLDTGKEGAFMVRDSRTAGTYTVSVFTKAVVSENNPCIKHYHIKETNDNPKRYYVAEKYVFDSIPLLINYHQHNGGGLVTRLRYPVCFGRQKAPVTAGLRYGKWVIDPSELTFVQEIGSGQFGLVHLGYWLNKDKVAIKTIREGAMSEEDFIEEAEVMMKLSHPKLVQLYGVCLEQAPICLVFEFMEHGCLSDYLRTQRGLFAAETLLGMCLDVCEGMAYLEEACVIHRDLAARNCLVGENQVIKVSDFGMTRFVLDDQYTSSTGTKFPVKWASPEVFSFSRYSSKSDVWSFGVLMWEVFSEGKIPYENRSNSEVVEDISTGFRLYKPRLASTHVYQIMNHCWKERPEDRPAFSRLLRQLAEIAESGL

cells = details: Homo sapiens, T-cell
Description: Antiinflammatory activity in human CD4+ T cell assessed as inhibition of anti-CD3/anti-CD28-induced IL-2 production treated 30 mins before anti-CD3/anti-CD28 challenge measured after 48 hrs by electro-chemiluminescence assay

Row | Structure (SMILES) | IC50 [1] [nM] | IC50 (cells) [nM]
1 | NC(=O)Cc1ccc2cc(-c3n[nH]c4cccnc34)[nH]c2c1 | 100 | 1000
2 | COCC(=O)Nc1ccc2[nH]nc(-c3cc4ccc(OC)cc4[nH]3)c2c1 |  | 500
3 | Cc1ccc2cc(-c3n[nH]c4ccc(NS(=O)(=O)c5cccc(F)c5)cc34)[nH]c2c1 |  | 800
4 | C(#Cc1ccc2cc(-c3n[nH]c4cccnc34)[nH]c2c1)CCc1cccnc1 | 500 | 
5 | Cc1ccc2cc(-c3n[nH]c4ccc(NC(=O)NCc5ccco5)cc34)[nH]c2c1 | 310 | 
6 | Cc1ccc2cc(-c3n[nH]c4ccc(NC5CCN(Cc6ccccc6)C5)cc34)[nH]c2c1 (stereo not given) | 30 | 350
7 | Cc1ccc2cc(-c3n[nH]c4ccc(NC5CCC5)cc34)[nH]c2c1 | 620 | 
8 | Cc1ccc2cc(-c3n[nH]c4ccc(NS(=O)(=O)c5ccc(F)cc5)cc34)[nH]c2c1 |  | 2900
9 | Cc1ccc2cc(-c3n[nH]c4ccc(NS(=O)(=O)c5cn(C)cn5)cc34)[nH]c2c1 | 26 | 400
10 | c1ccc(Cc2ccc3cc(-c4n[nH]c5cccnc45)[nH]c3c2)cc1 | 210 | 
11 | Cc1ccc2cc(-c3n[nH]c4ccc(NS(C)(=O)=O)cc34)[nH]c2c1 | 36 | 400
12 | CC(C)CN(C)C(=O)c1ccc2cc(-c3n[nH]c4ccccc34)[nH]c2c1 |  | 1600
13 | CN(C)CCc1ccc2cc(-c3n[nH]c4cccnc34)[nH]c2c1 | 1000 | 
14 | CN(Cc1ccccc1)C(=O)c1ccc2cc(-c3n[nH]c4ccccc34)[nH]c2c1 | 60 | 9400
15 | Cc1ccc2cc(-c3n[nH]c4ccc(NCc5ccccc5)cc34)[nH]c2c1 | 530 | 
16 | COCC#Cc1ccc2cc(-c3n[nH]c4cccnc34)[nH]c2c1 | 280 | 
17 | COc1ccc(S(=O)(=O)Nc2ccc3[nH]nc(-c4cc5ccc(C)cc5[nH]4)c3c2)cc1 |  | 700
18 | COCCN(C)C(=O)c1ccc2cc(-c3n[nH]c4ccccc34)[nH]c2c1 | 70 | 2000
19 | CN(c1ccccc1)c1ccc2cc(-c3n[nH]c4ccccc34)[nH]c2c1 | 310 | 
20 | c1ccc2c(-c3cc4ccc(NCC5CCCCC5)cc4[nH]3)n[nH]c2c1 |  | 3800
21 | Cc1ccc2cc(-c3n[nH]c4ccc(NC5CCNCC5)cc34)[nH]c2c1 |  | 90
22 | Cc1ccc2cc(-c3n[nH]c4ccc(NS(=O)(=O)c5c(C)nn(C)c5C)cc34)[nH]c2c1 | 85 | 1000
23 | Cc1ccc2cc(-c3n[nH]c4ccc(NC(=O)Nc5c(C)noc5C)cc34)[nH]c2c1 | 72 | 300
24 | Cc1ccc2cc(-c3n[nH]c4ccc(NC(=O)Nc5ccccc5)cc34)[nH]c2c1 | 730 | 
25 | Cc1ccc2cc(-c3n[nH]c4ccc(NCC(C)C)cc34)[nH]c2c1 | 860 | 
26 | CCC(=O)Cc1ccc2cc(-c3n[nH]c4cccnc34)[nH]c2c1 | 100 | 1100
27 | O=C(NCC1CCCCC1)c1ccc2cc(-c3n[nH]c4ccccc34)[nH]c2c1 |  | 9500

Row | Structure (SMILES) | IC50 [1] [nM] | IC50 (cells) [nM]
28 | CC(=O)N1CCC(Nc2ccc3[nH]nc(-c4cc5ccc(C)cc5[nH]4)c3c2)CC1 | 370 | 
29 | Cc1ccc2cc(-c3n[nH]c4cc(NC(=O)C5CCCCC5)ccc34)[nH]c2c1 | > 50000 | 
30 | c1cnc2c(-c3cc4ccc(CC5CCCCC5)cc4[nH]3)n[nH]c2c1 | 690 | 
31 | Cc1ccc2cc(-c3n[nH]c4ccc(NC(=O)NC5CCCCC5)cc34)[nH]c2c1 | 780 | 3200
32 | Cc1ccc2cc(-c3n[nH]c4ccc(NC5CCN(C)CC5)cc34)[nH]c2c1 |  | 120
33 | Cc1ccc2cc(-c3n[nH]c4ccc(NS(=O)(=O)c5ccccc5F)cc34)[nH]c2c1 |  | 1000
34 | CC(=O)Nc1ccc2[nH]nc(-c3cc4ccc(C)cc4[nH]3)c2c1 |  | 1000
35 | CCNC(=O)Nc1ccc2[nH]nc(-c3cc4ccc(C)cc4[nH]3)c2c1 | 83 | 600
36 | Cn1cncc1CNC(=O)c1ccc2cc(-c3n[nH]c4ccccc34)[nH]c2c1 | 20 | 
37 | Cc1ccc2cc(-c3n[nH]c4ccc(NC(=O)NCc5ccccc5)cc34)[nH]c2c1 | 750 | 
38 | Cc1ccc2cc(-c3n[nH]c4ccc(NS(=O)(=O)c5sc(C)nc5C)cc34)[nH]c2c1 | 190 | 2000
39 | Cc1ccc2cc(-c3n[nH]c4ccc(NC(=O)c5ccco5)cc34)[nH]c2c1 | 530 | 
40 | CN(Cc1ccco1)C(=O)c1ccc2cc(-c3n[nH]c4ccccc34)[nH]c2c1 | 110 | 
41 | c1cnc2c(-c3cc4ccc(CC5CCC5)cc4[nH]3)n[nH]c2c1 | 350 | 
42 | CCN(CC)C(=O)c1ccc2cc(-c3n[nH]c4ccccc34)[nH]c2c1 |  | 2100
43 | O=C(NCc1ccccc1)c1ccc2cc(-c3n[nH]c4ccccc34)[nH]c2c1 |  | 4100
44 | Cc1ccc2cc(-c3n[nH]c4ccc(NCC5CCCCC5)cc34)[nH]c2c1 | 1700 | 
45 | COCCNc1ccc2cc(-c3n[nH]c4ccccc34)[nH]c2c1 | 260 | 1200
46 | CN(C)CC#Cc1ccc2cc(-c3n[nH]c4cccnc34)[nH]c2c1 | 110 | 
47 | COc1cccc(S(=O)(=O)Nc2ccc3[nH]nc(-c4cc5ccc(C)cc5[nH]4)c3c2)c1 |  | 900
48 | c1ccc2c(-c3cc4ccc(N5CCOCC5)cc4[nH]3)n[nH]c2c1 | 120 | 1200
49 | Cc1ccc2cc(-c3n[nH]c4cc(NC(=O)c5ccccc5)ccc34)[nH]c2c1 | > 50000 | 
50 | Cc1ccc2cc(-c3n[nH]c4ccc(NC(=O)CN(C)C)cc34)[nH]c2c1 |  | 600
51 | Cc1ccc2cc(-c3n[nH]c4ccc(NS(=O)(=O)c5c(C)noc5C)cc34)[nH]c2c1 | 130 | 500
52 | Cc1ccc2cc(-c3n[nH]c4ccc(NC(=O)C5CCOCC5)cc34)[nH]c2c1 | 260 | 
53 | COCCc1ccc2cc(-c3n[nH]c4cccnc34)[nH]c2c1 | 70 | 600
54 | Cc1ccc2cc(-c3n[nH]c4ccc(NS(=O)(=O)c5ccccc5)cc34)[nH]c2c1 |  | 400
